Patent US20260101897A1, “PLANT ENVIRONMENTAL STRESS TOLERANCE IMPROVEMENT AGENT AND ENVIRONMENTAL STRESS TOLERANCE IMPROVEMENT METHOD” (priority 2022, published 2026)

Columns and labels:
Assay type in all cases: in vivo
soybean plant = assay: Evaluation Example 6: tolerance to drying stress, leaf mortality; conditions: for Leaf mortality rate / Environmental stress suppressing rate: drying stress Yes; for Leaf mortality rate: 7 days after stoppage of water
Description: EGT and GB were commercially available products, and pure water was used as a solvent. In a 60 mm square plastic pot having a height of 66 mm, 150 ml of granular soil (Kumiai horticultural soil) was placed, and one individual soybean plant was seeded per pot. They were managed in a greenhouse set at room temperature of 25° C. EGT in an amount of 50 mL or GB in an amount of 50 mL was added on the 23rd day after seeding, and drying stress was applied by stopping water supply for 7 days after the addition of EGT or GB. Dead leaves were counted 7 days after the stoppage of water, and the leaf mortality rate was evaluated as an index of physiological disorder. The leaf mortality rate and the environmental stress suppressing rate were calculated according to the following formulas. [formula] [formula]

wheat = assay: Evaluation Example 10: tolerance to ultraviolet stress, leaf mortality; conditions: for Environmental stress suppressing rate: ultraviolet stress Yes
Description: EGT (Examples 12 and 13, Comparative Examples 37 and 38) or GB (Comparative Examples 35, 36, 39, and 40) was prepared so as to have a concentration shown in Table 10 below. EGT and GB were commercially available products, and pure water was used as a solvent.
5 mL of pure water was added to 9-cm petri dishes on which filter paper was placed, and 10 wheat seeds were seeded per petri dish. They were located in a growth chamber set at room temperature of 22° C., and the light period was 16 hours and the dark period was 8 hours. The light conditions were set such that the light intensity was 5000 lx in the central part under irradiation with the fluorescent lamp.
On the 7th day after seeding, pure water in the petri dish was removed, 5 mL of EGT or 5 mL of GB was added to the petri dish, and one day after that, ultraviolet stress was applied by exposure for one hour under irradiation with an ultraviolet lamp (GL-15, manufactured by Toshiba Corporation) with the intensity of ultraviolet radiation of a wavelength of 254 nm set to 550 μW/cm^−2.
The dead leaves were counted 6 days after the ultraviolet stress was applied, and the leaf mortality rate was evaluated as an index of physiological disorder. The leaf mortality rate and the environmental stress suppressing rate were calculated according to the following formulas.

[1] = tested on: strawberry (wild strawberry); assay: Evaluation Example 14: tolerance to freezing stress, plant mortality; conditions: for Environmental stress suppressing rate: freezing stress Yes
Description: EGT (Example 18, Comparative Example 60) or GB (Comparative Examples 59 and 61) was prepared so as to have the concentration shown in Table 14 below. EGT and GB were commercially available products, and pure water was used as a solvent.
5 mL of pure water was added to 9-cm petri dishes on which filter paper was placed, and 10 seeds of strawberry (wild strawberry) were seeded per dish. They were located in a growth chamber set at room temperature of 22° C., and the light period was 16 hours and the dark period was 8 hours. The light conditions were set such that the light intensity was 5000 lx in the central part under irradiation with the fluorescent lamp.
On the 15th day after seeding, pure water in the petri dish was removed, and then 5 mL of EGT or 5 mL of GB was added, and 9 days after that, freezing stress was applied by exposure to an environment of −20° C. for 20 minutes.
The surviving plants were counted 3 days after the freezing stress was applied, and the mortality rate of the plants was evaluated as an index of physiological disorder. The mortality rate and the environmental stress suppressing rate were calculated according to the following formulas.

[2] = tested on: Arabidopsis thaliana (Col-0); assay: Evaluation Example 1: tolerance to salt stress, plant mortality
Description: L-(+)-ergothioneine (Examples 1 and 2 and Comparative Example 3) and glycine betaine (Comparative Examples 1 and 2 and Comparative Example 4) were prepared so as to have the concentrations shown in Table 1 below. EGT and GB were commercially available products, and pure water was used as a solvent.
Three individuals of Arabidopsis thaliana (Col-0) were seeded per well in a 24-well cell culture plate. Mixed salts for Murashige and Skoog medium (Fujifilm Wako Pure Chemical Industries, Ltd.) to which 1 wt. % of sucrose and 0.1 wt. % of agar-agar powder were added was used as a liquid medium, and the liquid medium was placed in a 2 mL per well.
They were located in a growth chamber set at room temperature of 22° C., and the light period was 16 hours and the dark period was 8 hours. The light conditions were set such that the light intensity was 5000 lx in the central part under irradiation with the fluorescent lamp. On the fourth day after seeding, EGT or GB was added so as to give a predetermined concentration, and 24 hours later, an aqueous sodium chloride solution was added so as to give a final 100 mM concentration, thereby giving a salt stress.
The number of surviving plants was counted on the 10th day after seeding, and the plant mortality rate was evaluated as an index of physiological disorder. The mortality rate and the environmental stress suppressing rate were calculated according to the following formulas.

arugula = assay: Evaluation Example 15: tolerance to low temperature stress, leaf wilting; conditions: for Environmental stress suppressing rate: low temperature stress Yes
Description: EGT (Examples 19 and 20, Comparative Examples 66 and 67) or GB (Comparative Example 64, 65, 68 and 69) was prepared so as to have a concentration shown in Table 15 below. EGT and GB were commercially available products, and pure water was used as a solvent.
1 mL of pure water was added to 3.5-cm petri dishes on which filter paper was placed, and 5 arugula seeds were seeded per petri dish. They were located in a growth chamber set at room temperature of 22° C., and the light period was 16 hours and the dark period was 8 hours. The light conditions were set such that the light intensity was 5000 lx in the central part under irradiation with the fluorescent lamp.
On the 4th day after seeding, pure water in the petri dish was removed, and then 1 mL of EGT or 1 mL of GB was added, and 24 hours after that, low temperature stress was applied by exposure to an environment of 4° C. for 48 hours.
The number of wilted arugula leaves was evaluated 3 days after the low temperature stress was applied. The leaf wilting rate and the environmental stress suppressing rate were calculated according to the following formulas.

[3] = test compound 0.1 mM (5 mL), ultraviolet stress Yes (254 nm, one hour), 6 days after stress
[4] = test compound 0.1 mM, ultraviolet stress No
[5] = test compound 1 mM (5 mL), ultraviolet stress Yes (254 nm, one hour), 6 days after stress
[6] = test compound 1 mM, ultraviolet stress No
[7] = test compound 0.1 mM (5 mL), freezing stress Yes (−20° C. for 20 minutes), 3 days after stress
[8] = test compound 0.1 mM, freezing stress No
[9] = test compound 0.1 mM, salt stress Yes (100 mM sodium chloride)
[10] = test compound 0.1 mM, salt stress Yes (100 mM sodium chloride), 10th day after seeding
[11] = test compound 1 mM, salt stress No
[12] = test compound 1 mM, salt stress Yes (100 mM sodium chloride)
[13] = test compound 1 mM, salt stress Yes (100 mM sodium chloride), 10th day after seeding
[14] = test compound 0.1 mM (1 mL), low temperature stress Yes (4° C. for 48 hours), 3 days after stress
[15] = test compound 0.1 mM, low temperature stress No
[16] = test compound 1 mM (1 mL), low temperature stress Yes (4° C. for 48 hours), 3 days after stress
[17] = test compound 1 mM, low temperature stress No

Row | SMILES | Leaf mortality rate (soybean plant; test compound 0.1 mM (50 mL)) | Environmental stress suppressing rate (soybean plant; test compound 0.1 mM) | Leaf mortality rate (soybean plant; test compound 1 mM (50 mL)) | Environmental stress suppressing rate (soybean plant; test compound 1 mM) | Leaf mortality rate (wheat; [3]) | Leaf mortality rate (wheat; [4]) | Environmental stress suppressing rate (wheat; test compound 0.1 mM) | Leaf mortality rate (wheat; [5]) | Leaf mortality rate (wheat; [6]) | Environmental stress suppressing rate (wheat; test compound 1 mM) | Mortality rate [1, 7] | Mortality rate [1, 8] | Environmental stress suppressing rate ([1]; test compound 0.1 mM) | Environmental stress suppressing rate [2, 9] | Mortality rate [2, 10] | Mortality rate [2, 11] | Environmental stress suppressing rate [2, 12] | Mortality rate [2, 13] | Leaf wilting rate (arugula; [14]) | Leaf wilting rate (arugula; [15]) | further results
1 | C[N+](C)(C)CC(=O)[O-] [GB, glycine betaine, reference compound] | 71% | 0% | 62% | 0% | 50% | 5% | 6% | 44% | 0% | 17% | 63% | 0% | 0% | 0% | 79% | 0% | 0% | 75% | 60% | 0% | mortality rate due to drying stress, result in words (soybean plant; GB 1 mM and 0.1 mM, drying stress): not suppressed; mortality rate due to ultraviolet stress, result in words (wheat; GB 1 mM and 0.1 mM, ultraviolet stress): hardly suppressed; mortality rate due to freezing stress, result in words ([1]; 0.1 mM, freezing stress): not suppressed; death due to salt stress, result in words ([2]; GB treatment 1 mM and 0.1 mM, salt stress): not suppressed; leaf wilting rate due to low temperature stress, result in words (arugula; GB 1 mM and 0.1 mM, low temperature stress): hardly suppressed; Environmental stress suppressing rate (arugula; test compound 0.1 mM): 10%; Leaf wilting rate (arugula; [16]): 60%; Leaf wilting rate (arugula; [17]): 0%; Environmental stress suppressing rate (arugula; test compound 1 mM): 10%
2 | C[N+](C)(C)[C@@H](Cc1c[nH]c(=S)[nH]1)C(=O)[O-] [EGT, L-(+)-ergothioneine] | 55% | 11% | 38% | 39% | 34% | 1% | 36% | 23% | 0% | 57% | 29% | 0% | 54% | 48% | 39% | 0% | 81% | 14% | 0% | 0% | Environmental stress suppressing rate (arugula; test compound 0.1 mM): 100%; Leaf wilting rate (arugula; [16]): 0%; Leaf wilting rate (arugula; [17]): 0%; Environmental stress suppressing rate (arugula; test compound 1 mM): 100%
